Experimental data taken from ChEMBL document CHEMBL3739292, “Synthesis and Biological Evaluation of Polar Functionalities Containing Nitrodihydroimidazooxazoles as Anti-TB Agents” (ACS Med Chem Lett, 2015).
Converted amounts (≈) assume the structure as drawn.

Assays:
[1] = test system: Mycobacterium tuberculosis; test: Antimicrobial activity against multidrug-resistant Mycobacterium tuberculosis by resazurin microtiter assay; type: functional
[2] = test system: Mycobacterium tuberculosis; test: Antimicrobial activity against rifamycin-resistant Mycobacterium tuberculosis by resazurin microtiter assay; type: functional

Structure (SMILES)	MIC [1]	MIC [2]
C[C@]1(COc2ccc(N3CCC(Oc4ccc(OC(F)(F)F)cc4)CC3)cc2)Cn2cc([N+](=O)[O-])nc2O1	0.02 µg/mL (≈ 0.0374 µM)	0.005 µg/mL (≈ 0.00935 µM)
CCOc1ccc(NC(=O)Nc2ccc(OC[C@@]3(C)Cn4cc([N+](=O)[O-])nc4O3)cc2)cc1	> 8 µg/mL	1 µg/mL (≈ 2.21 µM)
C[C@]1(COc2ccc(NC(=O)Nc3ccc(Cl)cc3)cc2)Cn2cc([N+](=O)[O-])nc2O1	> 8 µg/mL	0.67 µg/mL (≈ 1.51 µM)
COc1ccc(NC(=S)Nc2ccc(OC[C@@]3(C)Cn4cc([N+](=O)[O-])nc4O3)cc2)cc1	> 8 µg/mL	2 µg/mL (≈ 4.39 µM)
C[C@]1(COc2ccc(S(=O)(=O)N3CCOCC3)cc2)Cn2cc([N+](=O)[O-])nc2O1	2 µg/mL (≈ 4.71 µM)	1 µg/mL (≈ 2.36 µM)
C[C@]1(COc2ccc(N3CCN(S(=O)(=O)c4ccc(F)cc4)CC3)cc2)Cn2cc([N+](=O)[O-])nc2O1	> 8 µg/mL	1 µg/mL (≈ 1.93 µM)
C[C@]1(COc2ccc(-n3cc(COc4ccc(OC(F)(F)F)cc4)nn3)cc2)Cn2cc([N+](=O)[O-])nc2O1	0.12 µg/mL (≈ 0.225 µM)	0.06 µg/mL (≈ 0.113 µM)
C[C@]1(COc2ccc(S(=O)(=O)N3CCCCC3)cc2)Cn2cc([N+](=O)[O-])nc2O1	> 8 µg/mL	3.34 µg/mL (≈ 7.91 µM)
COc1c(N2CCNC(C)C2)c(F)cc2c(=O)c(C(=O)O)cn(C3CC3)c12 (centres undefined) [GATIFLOXACIN]	0.5 µg/mL (≈ 1.33 µM)	–
CO[C@H]1/C=C/O[C@@]2(C)Oc3c(C)c(O)c4c(O)c(c(/C=N/N5CCN(C)CC5)c(O)c4c3C2=O)NC(=O)/C(C)=C\C=C\[C@H](C)[C@H](O)[C@@H](C)[C@@H](O)[C@@H](C)[C@H](OC(C)=O)[C@@H]1C [RIFAMPIN]	128 µg/mL (≈ 156 µM)	256 µg/mL (≈ 311 µM)
